Test results taken from paper PMC8036666, “Biological and Physico-Chemical Characteristics of Arginine-Rich Peptide Gemini Surfactants with Lysine and Cystine Spacers” (International Journal of Molecular Sciences, 2021).
Values after ≈ are worked out from the molar mass of the structure shown. Values joined by “and” are separate entries in the source; they are usually repeats but may differ in a detail not shown here. Identical values can stand only once. Where a SMILES comes first, the peptide text is derived from it. Bridges are numbered along the chain shown (N, C = ends). Roman numbers before positions name the chains, in order. Side-chain parts run from the residue outwards. [ ]: non-standard residue; d: D form. The star is where a group is joined. Myristoyl = CCCCCCCCCCCCCC(=O)*; Lauroyl = CCCCCCCCCCCC(=O)*; Decanoyl = CCCCCCCCCC(=O)*; Nle = CCCC[C@H](N)C(=O)O; Octanoyl = CCCCCCCC(=O)*

Assays:
[1] = Lipopeptide hydrophobicity by RP-HPLC (adjusted retention time); format: physicochemical; details: for Adjusted Retention Time: RP-HPLC, 20–65% acetonitrile over 30 min, indicator of hydrophobicity; for Difference in retention time calculated as tR’C—tR’B: between corresponding surfactants of series C and B
Protocol: (§1) The identity of the purified peptides was confirmed with electrospray ionization mass spectrometry (ESI-MS) in positive ion mode. Results of MS analyses and net charge are attached in Supplementary Materials (Table S1). Peptides’ hydrophobicity was evaluated by analytical reversed-phase high-performance liquid chromatography (RP-HPLC). The critical aggregation concentrations (CACs) of the lipopeptides were determined in unbuffered aqueous solution at 298 K by measuring the surface tension as a function of lipopeptide concentration. The measurements were carried out by the Du Noüy ring method on a K100 tensiometer. The surface tension data were plotted against the logarithm of lipopeptide concentration. CAC was found as the intersection of two lines being linear regression of data below and above CAC.
Lipopeptide hydrophobicity was determined as described previously. To do this, a Waters Alliance e2695 system with a Waters 2998 PDA Detector (software-Empower 3, Waters, Milford, MA, USA) was used. All analyses were carried out on a Waters X-Bridge Shield RP-18 column (3.0 × 100 mm, 3.5 μm particle size, 130 Å pore size). The Shield Technology column with embedded polar groups was used to minimize interactions of unreacted silanol groups with basic lipopeptides. The peptides were dissolved in water (0.1% TFA, v/v) up to a concentration of 1 mg/mL. UV detection at 214 nm was used, and samples (10 μL) were eluted with a linear 20–65% acetonitrile gradient in deionized water over 30 min at 25.0 ± 0.1 °C. The mobile phase flow rate was 0.5 mL/min. Both eluents contained 0.1% (v/v) of TFA. Each peptide sample was analyzed in triplicate. The maximum standard deviation and coefficient of variation were 0.044 and 0.85%, respectively.

[2] = Critical aggregation concentration by surface tension (Du Noüy ring, K100 tensiometer); format: physicochemical; details: unbuffered aqueous solution, 298 K
Protocol: as §1
The critical aggregation concentration (CAC) values were determined fully automatically using a K100 tensiometer (KRUSS, Hamburg, Germany) equipped with two micro dosimeters by measuring the surface tension vs. lipopeptide concentration. The measurements were performed in unbuffered aqueous solution at 298 K using the Du Noüy ring method. The accuracy of the surface tension measurements was 0.1 mN/m. The critical aggregation concentration (CAC) was defined as the intersection of two lines fitted to the experimental data collected before and after the inflection point.

HaCaT cells = format: cell-based, human; details: 24 h
Protocol: Cells were trypsinized, and the medium was renewed 2–3 times per week. The cytotoxicity of compounds was assessed by the determination of cell metabolic activity by colorimetric CellTilter 96® Aqueous One Solution Cell Proliferation Assay (Promega, Madison, WI, USA), according to the manufacturer’s instructions. […] Every compound was medium-soluble in 37 °C; thus, the control cells were cultured with the medium. Serial dilutions of the tested compounds were always prepared prior to use. Cells were incubated with drugs for 24 h, and then, 20 μL of the CellTiter 96®AqueousOne Solution Reagent was added to each well containing cells maintained in 100 μL of culture medium.

[3] = test system: Staphylococcus aureus ATCC 33591; format: cell-based; details: ATCC 33591, 24 h
Protocol: (§2) Biofilm is associated with life-threating infections due to its outstanding resistance to antibiotics. In this study, the antibiofilm characteristics of USCLs and gemini surfactants were evaluated.
(§3) The MBECs were determined as described previously using 96-well polystyrene flat-bottom plates. For this purpose, 24 h cultures of microorganisms were diluted to obtain a final density of 5.0 × 10^5 CFU/mL and 2.0 × 10^5 CFU/mL of bacteria and fungi, respectively. Microorganisms were diluted in MHB or RPMI-1640 with 2% D-glucose (bacteria and fungi, respectively). Briefly, 100 µL of cell suspension was added into the test plates. After 24 h of incubation at 37 °C, the wells were rinsed three times with a PBS (pH 7.4) to remove non-adherent cells. Subsequently, 100 μL of the test compounds in a concentration range (1–512 μg/mL) were added to each well. After 24 h of incubation at 37 °C, 20 μL of a cell viability reagent was added (resazurin, 4 g/L; Sigma Aldrich, St. Louis, MO, USA). The MBEC was read after 1 h. The determined values were recorded as the lowest concentration at which the reduction of resazurin (from blue to pink) was lower or equal to 10 ± 0.5% as compared to the positive (100%) and negative (0%) controls. The reduction was monitored by measuring absorbance at 570 nm (reduced) and 600 nm (oxidized) using a microplate spectrophotometer (Multiskan GO Microplate Spectrophotometer, Thermo Fisher Scientific, Vantaa, Finland). All experiments were conducted in triplicate.

[4] = test system: Staphylococcus aureus ATCC 25923; format: cell-based; details: ATCC 25923, 24 h
Protocol: as §2, §3

[5] = test system: Klebsiella aerogenes ATCC 13048; format: cell-based; details: ATCC 13048, 24 h
Protocol: as §2, §3

[6] = test system: Klebsiella pneumoniae ATCC 700603; format: cell-based; details: ATCC 700603, 24 h
Protocol: as §2, §3

[7] = test system: Pseudomonas aeruginosa ATCC 9027; format: cell-based; details: ATCC 9027, 24 h
Protocol: as §2, §3

[8] = test system: Enterococcus faecium ATCC 700221; format: cell-based; details: ATCC 700221, 24 h
Protocol: as §2, §3

[9] = test system: Candida glabrata ATCC 15126; format: cell-based; details: ATCC 15126, 24 h
Protocol: as §2, §3

[10] = test system: Acinetobacter baumannii ATCC BAA 1605; format: cell-based; details: ATCC BAA 1605, 24 h
Protocol: as §2, §3

[11] = test system: Candida albicans ATCC 10231; format: cell-based; details: ATCC 10231, 24 h
Protocol: as §2, §3

Row | Adjusted Retention Time [1] | CAC [2] | Surface Tension at CAC [2] | SMILES | IC50 (HaCaT cells) | MBEC Staphylococcus aureus ATCC 33591 [3] | MBEC Staphylococcus aureus ATCC 25923 [4] | MBEC Klebsiella aerogenes ATCC 13048 [5] | MBEC Klebsiella pneumoniae ATCC 700603 [6] | MBEC Pseudomonas aeruginosa ATCC 9027 [7] | MBEC Enterococcus faecium ATCC 700221 [8] | MBEC Candida glabrata ATCC 15126 [9] | MBEC Acinetobacter baumannii ATCC BAA 1605 [10] | MBEC Candida albicans ATCC 10231 [11] | Difference in retention time calculated as tR’C—tR’B [1]
1 | 19.09 min | 0.87 mM and 987.3 μg/mL | 41 mN/m | CCCCCCCCCCCC(=O)N[C@@H](CCCNC(=N)N)C(=O)N[C@@H](CCCNC(=N)N)C(=O)NCCCC[C@H](NC(=O)[C@H](CCCNC(=N)N)NC(=O)[C@H](CCCNC(=N)N)NC(=O)CCCCCCCCCCC)C(N)=O [Compound B3] (Lauroyl-Arg-Arg-Lys([Arg-Arg-Lauroyl])-NH2) | 26.42 ± 4.24 µg/mL (≈ 23.3 µM) | 16 µg/mL | 64 µg/mL | 128 µg/mL | 128 µg/mL | 512 µg/mL | 16 µg/mL | 64 µg/mL | 256 µg/mL | 32 µg/mL | –
2 | 25.33 min | 0.31 mM and 365.7 μg/mL | 40 mN/m | CCCCCCCCCCCCCC(=O)N[C@@H](CCCNC(=N)N)C(=O)N[C@@H](CCCNC(=N)N)C(=O)NCCCC[C@H](NC(=O)[C@H](CCCNC(=N)N)NC(=O)[C@H](CCCNC(=N)N)NC(=O)CCCCCCCCCCCCC)C(N)=O [Compound B4] (Myristoyl-Arg-Arg-Lys([Arg-Arg-Myristoyl])-NH2) | 32.39 ± 4.49 µg/mL (≈ 27.2 µM) | 128 µg/mL | 256 µg/mL | 256 µg/mL | 512 µg/mL | >512 µg/mL | 64 µg/mL | 64 µg/mL | 512 µg/mL | 64 µg/mL | –
3 | 15.19 min | 2.47 mM and 3247.9 μg/mL | 39 mN/m | CCCCCCCC(=O)N[C@@H](Cc1ccccc1)C(=O)N[C@@H](CCCNC(=N)N)C(=O)N[C@@H](CCCNC(=N)N)C(=O)NCCCC[C@H](NC(=O)[C@H](CCCNC(=N)N)NC(=O)[C@H](CCCNC(=N)N)NC(=O)[C@H](Cc1ccccc1)NC(=O)CCCCCCC)C(N)=O [Compound B5] (Octanoyl-FRRK([Arg-Arg-Phe-Octanoyl])-NH2) | 169.13 ± 32.80 µg/mL (≈ 128 µM) | 4 µg/mL | 16 µg/mL | 256 µg/mL | 256 µg/mL | 512 µg/mL | 8 µg/mL | 256 µg/mL | 256 µg/mL | 32 µg/mL | –
4 | 13.96 min | 3.59 mM and 4482.4 μg/mL | 37 mN/m | CCCCCCCC(=O)N[C@@H](CCCC)C(=O)N[C@@H](CCCNC(=N)N)C(=O)N[C@@H](CCCNC(=N)N)C(=O)NCCCC[C@H](NC(=O)[C@H](CCCNC(=N)N)NC(=O)[C@H](CCCNC(=N)N)NC(=O)[C@H](CCCC)NC(=O)CCCCCCC)C(N)=O [Compound B6] (Octanoyl-[Nle]RRK([Arg-Arg-Nle-Octanoyl])-NH2) | 164.17 ± 14.65 µg/mL (≈ 131 µM) | 4 µg/mL | 16 µg/mL | 256 µg/mL | 256 µg/mL | 256 µg/mL | 8 µg/mL | 512 µg/mL | 256 µg/mL | 256 µg/mL | –
5 | 19.24 min | 0.25 mM and 305.4 μg/mL | 43 mN/m | CCCCCCCCCCCC(=O)N[C@@H](CCCNC(=N)N)C(=O)N[C@@H](CCCNC(=N)N)C(=O)N[C@@H](CSSC[C@H](NC(=O)[C@H](CCCNC(=N)N)NC(=O)[C@H](CCCNC(=N)N)NC(=O)CCCCCCCCCCC)C(N)=O)C(N)=O [Compound C3] (I: Lauroyl-Arg-Arg-Cys-NH2 / II: Lauroyl-Arg-Arg-Cys-NH2; disulfide I:3-II:3) | 119.47 ± 6.03 µg/mL (≈ 97.3 µM) | 32 µg/mL | 128 µg/mL | 256 µg/mL | 256 µg/mL | 512 µg/mL | 16 µg/mL | 128 µg/mL | 512 µg/mL | 16 µg/mL | 0.15 min

Row | SMILES | Adjusted Retention Time [1] | CAC [2] | Surface Tension at CAC [2] | IC50 (HaCaT cells) | MBEC Staphylococcus aureus ATCC 33591 [3] | MBEC Staphylococcus aureus ATCC 25923 [4] | MBEC Klebsiella aerogenes ATCC 13048 [5] | MBEC Klebsiella pneumoniae ATCC 700603 [6] | MBEC Pseudomonas aeruginosa ATCC 9027 [7] | MBEC Enterococcus faecium ATCC 700221 [8] | MBEC Candida glabrata ATCC 15126 [9] | MBEC Acinetobacter baumannii ATCC BAA 1605 [10] | MBEC Candida albicans ATCC 10231 [11] | Difference in retention time calculated as tR’C—tR’B [1]
6 | CCCCCCCCCC(=O)N[C@@H](CCCNC(=N)N)C(=O)N[C@@H](CCCNC(=N)N)C(=O)N[C@@H](CSSC[C@H](NC(=O)[C@H](CCCNC(=N)N)NC(=O)[C@H](CCCNC(=N)N)NC(=O)CCCCCCCCC)C(N)=O)C(N)=O [Compound C2] (I: Decanoyl-Arg-Arg-Cys-NH2 / II: Decanoyl-Arg-Arg-Cys-NH2; disulfide I:3-II:3) | 13.94 min | 3.30 mM and 3832.7 μg/mL | 43 mN/m | 231.17 ± 24.37 µg/mL (≈ 197 µM) | 8 µg/mL | 32 µg/mL | 256 µg/mL | 512 µg/mL | 512 µg/mL | 4 µg/mL | 512 µg/mL | 256 µg/mL | 32 µg/mL | 0.21 min
